Results from the supplement of paper PMC4862054.

Tested on: HDQ-P1
Assay: normalised response (% of control), CellTiter-Glo; higher = more viable cells (100 = DMSO, 0 = benzethonium chloride kill control)
Conditions: incubation time: 72 h
Outline: (§1)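 Normalised signals at single concentrations make up the values. They come from breast cancer cell lines seeded (20 µl suspension) into 384-well plates with compound at 5 concentrations in 10-fold steps over a compound-specific 10,000-fold range, incubated 72 h, and read for CellTox Green fluorescence then CellTiter-Glo luminescence. Each plate was normalised to 0.1 % DMSO (100) and a positive kill control (0).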

SMILES	normalised response [%]
CC(=O)Nc1cccc(-n2c(=O)n(C3CC3)c(=O)c3c(Nc4ccc(I)cc4F)n(C)c(=O)c(C)c32)c1 [Trametinib] (0.025 nM)	98.6
O=C(O)C1(C(=O)O)CCC1.[NH2-].[NH2-].[Pt+2] [Carboplatin] (1 nM)	97.5
C[C@H]1C[C@@H]2[C@H]([C@@H](O)C[C@@]3(C)[C@H]2CC[C@]3(O)C(=O)CO)[C@@]2(C)C=CC(=O)C=C12 [Methylprednisolone] (1 nM)	99.6
CC[C@H](C)C(=O)O[C@H]1C[C@H](O)C=C2C=C[C@H](C)[C@H](CC[C@@H](O)C[C@@H](O)CC(=O)O)[C@H]21 [Pravastatin] (10 nM)	106
O=C(Cc1ccc(-c2ccc(OCCN3CCOCC3)cc2)cn1)NCc1ccccc1 [KX2-391] (10 nM)	98

Tested on: HCC1937
Assay: as above
Conditions: incubation time: 72 h
Outline: as §1

SMILES	normalised response [%]
Nc1nc(F)nc2c1ncn2[C@@H]1O[C@H](CO)[C@@H](O)[C@@H]1O [Fludarabine] (1 nM)	99.3
CC[C@@H]1C(=O)N(C)c2cnc(Nc3ccc(C(=O)NC4CCN(C)CC4)cc3OC)nc2N1C1CCCC1 [BI 2536] (0.1 nM)	98.7
Nc1ncn([C@H]2C[C@H](O)[C@@H](CO)O2)c(=O)n1 [Decitabine] (1 nM)	101
CC1=C(/C=C/C(C)=C/C=C/C(C)=C/C(=O)O)C(C)(C)CCC1 [Tretinoin] (1 nM)	106
COc1cc([C@@H]2c3cc4c(cc3[C@@H](O[C@@H]3O[C@@H]5CO[C@@H](c6cccs6)O[C@H]5[C@H](O)[C@H]3O)[C@H]3COC(=O)[C@H]23)OCO4)cc(OC)c1O [Teniposide] (1 nM)	106
CCN(CC)CCCC(C)Nc1c2ccc(Cl)cc2nc2ccc(OC)cc12 (configuration not stated) [Mepacrine] (50 nM)	104
O=C(/C=C/c1cccnc1)NCCCCC1CCN(C(=O)c2ccccc2)CC1 [Daporinad] (1 nM)	101
Nc1nc2[nH]cc(CCc3ccc(C(=O)N[C@@H](CCC(=O)O)C(=O)O)cc3)c2c(=O)[nH]1 [Pemetrexed] (10 nM)	104
CC[C@H](Nc1ncnc2[nH]cnc12)c1nc2cccc(F)c2c(=O)n1-c1ccccc1 [GS-1101] (10 nM)	92.3
Cc1cnc(NC(=O)Nc2cc(Br)c(C)cc2OC[C@@H]2CNCCO2)cn1 [Rabusertib] (0.1 nM)	101
CNC(=O)c1cc(Oc2ccc(NC(=O)Nc3cc(C(C)(C)C)nn3-c3ccc4ncccc4c3)c(F)c2)ccn1 [Rebastinib] (1 nM)	97.6
CCc1cncnc1N1CCN(Cc2nc3ccc(C(F)(F)F)cc3[nH]2)CC1 (1 nM)	95.5
O=C(Cc1ccc(-c2ccc(OCCN3CCOCC3)cc2)cn1)NCc1ccccc1 [KX2-391] (1 nM)	99.4
O=C(/C=C/c1cccnc1)NCCCCC1CCN(C(=O)c2ccccc2)CC1 [Daporinad] (0.1 nM)	101
O=C(O)C(=O)O.[NH-][C@@H]1CCCC[C@H]1[NH-].[Pt+2] [Oxaliplatin] (1 nM)	93.9
CC(=O)Nc1cccc(-n2c(=O)n(C3CC3)c(=O)c3c(Nc4ccc(I)cc4F)n(C)c(=O)c(C)c32)c1 [Trametinib] (0.025 nM)	96.5
O=C(O)C1(C(=O)O)CCC1.[NH2-].[NH2-].[Pt+2] [Carboplatin] (1 nM)	101
C[C@H]1C[C@@H]2[C@H]([C@@H](O)C[C@@]3(C)[C@H]2CC[C@]3(O)C(=O)CO)[C@@]2(C)C=CC(=O)C=C12 [Methylprednisolone] (1 nM)	99.3
CC[C@H](C)C(=O)O[C@H]1C[C@H](O)C=C2C=C[C@H](C)[C@H](CC[C@@H](O)C[C@@H](O)CC(=O)O)[C@H]21 [Pravastatin] (10 nM)	95.4
O=C(Cc1ccc(-c2ccc(OCCN3CCOCC3)cc2)cn1)NCc1ccccc1 [KX2-391] (10 nM)	98.4

Tested on: CAL-148
Assay: as above
Conditions: incubation time: 72 h
Outline: as §1

SMILES	normalised response [%]
Nc1nc(F)nc2c1ncn2[C@@H]1O[C@H](CO)[C@@H](O)[C@@H]1O [Fludarabine] (1 nM)	97.2
CC[C@@H]1C(=O)N(C)c2cnc(Nc3ccc(C(=O)NC4CCN(C)CC4)cc3OC)nc2N1C1CCCC1 [BI 2536] (0.1 nM)	102
Nc1ncn([C@H]2C[C@H](O)[C@@H](CO)O2)c(=O)n1 [Decitabine] (1 nM)	92.1
CC1=C(/C=C/C(C)=C/C=C/C(C)=C/C(=O)O)C(C)(C)CCC1 [Tretinoin] (1 nM)	102
COc1cc([C@@H]2c3cc4c(cc3[C@@H](O[C@@H]3O[C@@H]5CO[C@@H](c6cccs6)O[C@H]5[C@H](O)[C@H]3O)[C@H]3COC(=O)[C@H]23)OCO4)cc(OC)c1O [Teniposide] (1 nM)	102
CCN(CC)CCCC(C)Nc1c2ccc(Cl)cc2nc2ccc(OC)cc12 (configuration not stated) [Mepacrine] (50 nM)	96.8
O=C(/C=C/c1cccnc1)NCCCCC1CCN(C(=O)c2ccccc2)CC1 [Daporinad] (1 nM)	101
Nc1nc2[nH]cc(CCc3ccc(C(=O)N[C@@H](CCC(=O)O)C(=O)O)cc3)c2c(=O)[nH]1 [Pemetrexed] (10 nM)	98
CC[C@H](Nc1ncnc2[nH]cnc12)c1nc2cccc(F)c2c(=O)n1-c1ccccc1 [GS-1101] (10 nM)	87
Cc1cnc(NC(=O)Nc2cc(Br)c(C)cc2OC[C@@H]2CNCCO2)cn1 [Rabusertib] (0.1 nM)	112
CNC(=O)c1cc(Oc2ccc(NC(=O)Nc3cc(C(C)(C)C)nn3-c3ccc4ncccc4c3)c(F)c2)ccn1 [Rebastinib] (1 nM)	109
CCc1cncnc1N1CCN(Cc2nc3ccc(C(F)(F)F)cc3[nH]2)CC1 (1 nM)	106
O=C(Cc1ccc(-c2ccc(OCCN3CCOCC3)cc2)cn1)NCc1ccccc1 [KX2-391] (1 nM)	107
O=C(/C=C/c1cccnc1)NCCCCC1CCN(C(=O)c2ccccc2)CC1 [Daporinad] (0.1 nM)	101
O=C(O)C(=O)O.[NH-][C@@H]1CCCC[C@H]1[NH-].[Pt+2] [Oxaliplatin] (1 nM)	91.3
CC(=O)Nc1cccc(-n2c(=O)n(C3CC3)c(=O)c3c(Nc4ccc(I)cc4F)n(C)c(=O)c(C)c32)c1 [Trametinib] (0.025 nM)	111
O=C(O)C1(C(=O)O)CCC1.[NH2-].[NH2-].[Pt+2] [Carboplatin] (1 nM)	100
C[C@H]1C[C@@H]2[C@H]([C@@H](O)C[C@@]3(C)[C@H]2CC[C@]3(O)C(=O)CO)[C@@]2(C)C=CC(=O)C=C12 [Methylprednisolone] (1 nM)	120
CC[C@H](C)C(=O)O[C@H]1C[C@H](O)C=C2C=C[C@H](C)[C@H](CC[C@@H](O)C[C@@H](O)CC(=O)O)[C@H]21 [Pravastatin] (10 nM)	98.7
O=C(Cc1ccc(-c2ccc(OCCN3CCOCC3)cc2)cn1)NCc1ccccc1 [KX2-391] (10 nM)	112

Tested on: CAL-51
Assay: as above
Conditions: incubation time: 72 h
Outline: as §1

SMILES	normalised response [%]
Nc1nc(F)nc2c1ncn2[C@@H]1O[C@H](CO)[C@@H](O)[C@@H]1O [Fludarabine] (1 nM)	93.1
CC[C@@H]1C(=O)N(C)c2cnc(Nc3ccc(C(=O)NC4CCN(C)CC4)cc3OC)nc2N1C1CCCC1 [BI 2536] (0.1 nM)	103
